{
  "source": "ChEMBL document CHEMBL3044953",
  "about": "“Effect of nitrogen insertion on the antitussive properties of menthol and camphor” (Med Chem Res, 2012)",
  "key": {"Cavia porcellus [1]": {"species": "Cavia porcellus", "assay": "Antitussive activity against crtric acid-induced cough in Cavia porcellus (guinea pig) model assessed as increase in cough latency at 500 ug/ml for 5 min through aerosol prior to exposure of aerosolized citric acid for 10 min", "type": "functional, organism-based"}, "Cavia porcellus [2]": {"species": "Cavia porcellus", "assay": "Antitussive activity against crtric acid-induced cough in Cavia porcellus (guinea pig) model assessed as reduction in cough response at 250 to 500 ug/ml for 5 min through aerosol prior to exposure of aerosolized citric acid for 10 min", "type": "functional, organism-based"}, "Cavia porcellus [3]": {"species": "Cavia porcellus", "assay": "Antitussive activity against crtric acid-induced cough in Cavia porcellus (guinea pig) model assessed as cough latency at 125 to 250 ug/ml for 5 min through aerosol prior to exposure of aerosolized citric acid for 10 min", "type": "functional, organism-based"}, "Cavia porcellus [4]": {"species": "Cavia porcellus", "assay": "Antitussive activity against crtric acid-induced cough in Cavia porcellus (guinea pig) model assessed as cough response at 125 ug/ml for 5 min through aerosol prior to exposure of aerosolized citric acid for 10 min", "type": "functional, organism-based"}, "Cavia porcellus [5]": {"species": "Cavia porcellus", "assay": "Antitussive activity against crtric acid-induced cough in Cavia porcellus (guinea pig) model assessed as increase in cough latency at 30 to 60 ug/ml for 5 min through aerosol prior to exposure of aerosolized citric acid for 10 min", "type": "functional, organism-based"}, "Cavia porcellus [6]": {"species": "Cavia porcellus", "assay": "Antitussive activity against crtric acid-induced cough in Cavia porcellus (guinea pig) model assessed as reduction in cough response at 15 to 60 ug/ml for 5 min through aerosol prior to exposure of aerosolized citric acid for 10 min", "type": "functional, organism-based"}, "Cavia porcellus [7]": {"species": "Cavia porcellus", "assay": "Toxicity in Cavia porcellus (guinea pig) assessed as irritation at 125 to 500 ug/ml through aerosol", "type": "organism-based", "details": "in vivo, inhaled_or_intranasal"}, "Cavia porcellus [8]": {"species": "Cavia porcellus", "assay": "Toxicity in Cavia porcellus (guinea pig) assessed as adverse behavior at 125 to 500 ug/ml through aerosol", "type": "organism-based", "details": "in vivo, inhaled_or_intranasal"}, "Cavia porcellus [9]": {"species": "Cavia porcellus", "assay": "Antitussive activity against crtric acid-induced cough in Cavia porcellus (guinea pig) model assessed as reduction in cough response at 125 to 500 ug/ml for 5 min through aerosol prior to exposure of aerosolized citric acid for 10 min", "type": "functional, organism-based"}, "Cavia porcellus [10]": {"species": "Cavia porcellus", "assay": "Antitussive activity against crtric acid-induced cough in Cavia porcellus (guinea pig) model assessed as cough latency at 125 ug/ml for 5 min through aerosol prior to exposure of aerosolized citric acid for 10 min", "type": "functional, organism-based"}, "Cavia porcellus [11]": {"species": "Cavia porcellus", "assay": "Antitussive activity against crtric acid-induced cough in Cavia porcellus (guinea pig) model assessed as increase in cough latency at 250 to 500 ug/ml for 5 min through aerosol prior to exposure of aerosolized citric acid for 10 min", "type": "functional, organism-based"}, "Cavia porcellus [12]": {"species": "Cavia porcellus", "assay": "Toxicity in Cavia porcellus (guinea pig) assessed as adverse behavior at 15 to 60 ug/ml through aerosol", "type": "organism-based", "details": "in vivo, inhaled_or_intranasal"}, "Cavia porcellus [13]": {"species": "Cavia porcellus", "assay": "Toxicity in Cavia porcellus (guinea pig) assessed as irritation at 15 to 60 ug/ml through aerosol", "type": "organism-based", "details": "in vivo, inhaled_or_intranasal"}, "Cavia porcellus [14]": {"species": "Cavia porcellus", "assay": "Antitussive activity against crtric acid-induced cough in Cavia porcellus (guinea pig) model assessed as increase in cough latency at 15 to 60 ug/ml for 5 min through aerosol prior to exposure of aerosolized citric acid for 10 min", "type": "functional, organism-based"}},
  "note": "Activity calls are given as the source filed them. No cut-off for these calls is given here.",
  "data": [
    {"smiles": "CC12CCC(CC1=O)C2(C)C", "note": "(stereo not given)", "values": [
      {"measurement": "Activity", "setting": "Cavia porcellus [1]", "value": "Active"},
      {"measurement": "inhibition", "setting": "Cavia porcellus [2]", "value": "Active"},
      {"measurement": "Activity", "setting": "Cavia porcellus [3]", "value": "inactive"},
      {"measurement": "inhibition", "setting": "Cavia porcellus [4]", "value": "inactive"}
    ]},
    {"smiles": "CC1CCC(C(C)C)C(O)C1", "note": "(stereo not given)", "values": [
      {"measurement": "Activity", "setting": "Cavia porcellus [5]", "value": "Active"},
      {"measurement": "inhibition", "setting": "Cavia porcellus [6]", "value": "Active"}
    ]},
    {"smiles": "CC1(C)C2CC[C@]1(C)C(=O)NC2", "note": "[Alpha-camphidone]", "values": [
      {"measurement": "Activity", "setting": "Cavia porcellus [7]", "value": "Non-toxic"},
      {"measurement": "Activity", "setting": "Cavia porcellus [8]", "value": "Non-toxic"},
      {"measurement": "inhibition", "setting": "Cavia porcellus [9]", "value": "Active"},
      {"measurement": "Activity", "setting": "Cavia porcellus [10]", "value": "inactive"},
      {"measurement": "Activity", "setting": "Cavia porcellus [11]", "value": "Active"}
    ]},
    {"smiles": "CC(C)[C@@H]1CC[C@@H](C)CC(=O)N1", "note": "[Menthol lactam]", "values": [
      {"measurement": "inhibition", "setting": "Cavia porcellus [6]", "value": "Active"},
      {"measurement": "Activity", "setting": "Cavia porcellus [12]", "value": "Non-toxic"},
      {"measurement": "Activity", "setting": "Cavia porcellus [13]", "value": "Non-toxic"},
      {"measurement": "Activity", "setting": "Cavia porcellus [14]", "value": "Active"}
    ]}
  ]
}
